Laboratory results as given in US5166208A, “Fredericamycin A derivatives” (Boston College, priority 1991, dated 1992).
≈ marks a conversion by molar mass, not a printed value. Structures can show the parent of a compound that is named as a salt.

Tests used:
murine melanoma (B16) = assay: In vitro microdilution inhibition, B16; format: cell-based; conditions: Mus musculus; B16, 72 hours, 50% of cells killed
Text: (§1) As shown in Table III the compounds of the present invention exert an in vitro antitumor effect. The following cells lines were employed: human lung (A549); resistant human lung with low topo II activity (A549-VP); murine melanoma (B16); human colon tumor (HCT116); human colon tumor with elevated p170 levels (HCTVM); human colon tumor with low topo II activity (HCTVP); and another human colon carcinoma cell line (Moser). In the Table, the designation "NT" indicates the compound was not tested against the specified cell line. The cell lines were maintained in continuous culture at 37°, 5% CO2 and high humidity. Cells were harvested in log phase growth and suspended at concentration of 25,000 cells/mL. A […] aliquot was then added to each well (i.e., 3,750 cells per well) of a 96-well flat bottom plate and the cells were allowed to attach over a 24 hour period. After this 24 hour incubation, a 50 μL sample of the specified compound was added to the first (top) well of each column, and the remaining wells of each column serially diluted, 1:4, and allowed to incubate for 72 hours at 37° C., 5% CO2 and high humidity. Following incubation, 50 μL of freshly prepared stain solution was added to each well. After a 3 hour incubation at room temperature, absorbance was read at 450 nm on a microplate reader to determine the compound concentration at which 50% of the cells were killed, such concentration referred to as the "IC50 ".

[1] = tested on: human colon tumor (HCT116); assay: In vitro microdilution inhibition, HCT116; format: cell-based; conditions: HCT-116, 72 hours, 50% of cells killed
Text: as §1

[2] = tested on: resistant human lung with low topo II activity (A549-VP); assay: In vitro microdilution inhibition, resistant human lung A549-VP; format: cell-based; conditions: A549VP, 72 hours, 50% of cells killed
Text: as §1

[3] = tested on: human colon tumor with low topo II activity (HCTVP); assay: In vitro microdilution inhibition, HCTVP; format: cell-based; conditions: 72 hours, 50% of cells killed
Text: as §1

[4] = tested on: human colon tumor with elevated p170 levels (HCTVM); assay: In vitro microdilution inhibition, HCTVM; format: cell-based; conditions: 72 hours, 50% of cells killed
Text: as §1

human lung (A549) = assay: In vitro microdilution inhibition, human lung A549; format: cell-based; conditions: A549, 72 hours, 50% of cells killed
Text: as §1

p388 murine leukemia = assay: In vivo activity against p388 murine leukemia in an acute mouse model; conditions: CDF1 (female only); for AWC (average weight change per mouse): before treatment to day five
Method: CDF1 mice of both sexes weighing between 16 and 25 gm. were used, with a 2 gm. weight range and same sex and source used per experiment. BDF1 mice also were used with the same weight, sex and source parameters. Control and test animals were injected interperitoneally with suspension of 1×10^6 p388 murine leukemia cells (0.5 mL dose) on day 0. Groups of 4-6 mice were used for each dosage amount they were treated with 5 doses on day one. A group of ten saline treated control mice was included in each set of experiments. A 30 day protocol was employed with mean survival time in days being determined for each group of mice with the number of survivors at the end of the 30 day period being noted. The mice were weighed before treatment and again on day five. The values listed for average weight change (AWC) is the average weight change per mouse at the specified dose. The change in weight was taken as a measure of drug toxicity. A loss in weight of up to 2 grams is not considered excessive. The results were determined in terms of % T/C which is the ratio of the mean survival time of the treated group to the mean survival time of the saline treated group times 100.

Structure (SMILES)	IC50 (murine melanoma (B16)) [µg/mL]	IC50 [1] [µg/mL]	IC50 [2] [µg/mL]	IC50 [3] [µg/mL]	IC50 [4] [µg/mL]	IC50 (human lung (A549)) [µg/mL]	further results
COCOc1cccc2c1C1(CC2)C(=O)c2c(O)c3c(c(O)c2C1=O)C(=O)C(N[C@@H](CC(N)=O)C(=O)O)=CC3=O (some centres unmarked) [Example 26, 2',3'-Dihydro-7'-(methoxymethoxy)-1H-indene-1'-spiro-2-4,9-dihydroxy-6-(1-carboxy-2-carbamoylethylamino)-2H-benz[f]indene-1,3,5,8-tetrone]	9.3 (≈ 16.9 µM)	1.23 (≈ 2.23 µM)					
COCOc1cccc2c1C1(CC2)C(=O)c2c(O)c3c(c(O)c2C1=O)C(=O)C(NCC(O)c1ccccc1)=CC3=O (centres unmarked) [Example 17, 2',3'-Dihydro-7'-(methoxymethoxy)-1H-indene-1'-spiro-2-[6-(2-hydroxy-2-phenyl-ethylamino)-4,9-dihydroxy-2H-benz[f]indene-1,3,5,8-tetrone]]	15 (≈ 27 µM)	1.47 (≈ 2.65 µM)					
COCOc1cccc2c1C1(CC2)C(=O)c2c(O)c3c(c(O)c2C1=O)C(=O)C(SCCO)=CC3=O (centres unmarked) [Example 33, 2',3'-Dihydro-7'-(methoxymethoxy)-1H-indene-1'-spiro-2-[4,9-dihydroxy-6-(2-hydroxyethylmercapto)-2H-benz[f]indene-1,3,5,8-tetrone]]	107 (≈ 216 µM)	5.08 (≈ 10.2 µM)					
COCOc1cccc2c1C1(CC2)C(=O)c2c(O)c3c(c(O)c2C1=O)C(=O)C(N)=CC3=O (centres unmarked) [Example 14, 6-amino-2',3'-dihydro-7'-(methoxymethoxy)-1H-indene-1'-spiro-2-[4,9-dihydroxy-2H-benz[f]-indene-1,3,5,8-tetrone]]	0.03 (≈ 0.0689 µM)	0.03 (≈ 0.0689 µM)	0.03 (≈ 0.0689 µM)	0.03 (≈ 0.0689 µM)	0.03 (≈ 0.0689 µM)	< 0.03	
COCOc1cccc2c1C1(CC2)C(=O)c2c(O)c3c(c(O)c2C1=O)C(=O)C(Sc1ccccc1)=C(Sc1ccccc1)C3=O [Example 31, 2',3'-Dihydro-7'-(methoxymethoxy)-1H-indene-1'-spiro-2-[6,7-di(phenylmercapto)-4,9-dihydroxy-2H-benz[f]indene-I,3,5,8-tetrone]]	> 16	> 16	> 16	> 16	> 16	> 16	
COCOc1cccc2c1C1(CC2)C(=O)c2c(O)c3c(c(O)c2C1=O)C(=O)C(Sc1ccccc1)=CC3=O (centres unmarked) [Example 34, 2',3'-Dihydro-7'-(methoxymethoxy)-1H-indene-1'-spiro-2-[4,9-dihydroxy-6-(phenylmercapto)-2H-benz[f]indene-1,3,5,8-tetrone]]	110 (≈ 208 µM)	78 (≈ 148 µM)					
COCOc1cccc2c1C1(CC2)C(=O)c2c(O)c3c(c(O)c2C1=O)C(=O)C(Nc1ccc(O)cc1)=CC3=O (centres unmarked) [Example 21, 2',3'-Dihydro-7'-(methoxymethoxy)-1H-indene-1'-spiro-2-[6-(4-hydroxyanilino)-4,9-dihydroxy-2H-benz[f]indene-1,3,5,8-tetrone]]	18.7 (≈ 35.5 µM)	6.79 (≈ 12.9 µM)					
COC1=CC(=O)c2c(O)c3c(c(O)c2C1=O)C(=O)C1(CCc2cccc(O)c21)C3=O (centres unmarked) [Example 6, 2',3'-Dihydro-7'-hydroxy-6-methoxy-1H-indene-1'-spiro-2-[4,9-dihydroxy-2H-benz[f]indene-1,3,5,8-tetrone]]	5.2 (≈ 12.8 µM)	1.6 (≈ 3.94 µM)	6.4 (≈ 15.8 µM)	3.5 (≈ 8.61 µM)	1.7 (≈ 4.18 µM)	4.9 (≈ 12.1 µM)	
COCOc1cccc2c1C1(CC2)C(=O)c2c(O)c3c(c(O)c2C1=O)C(=O)C(NCC(=O)O)=CC3=O (centres unmarked) [Example 29, 2',3'-Dihydro-7'-(methoxymethoxy)-1H-indene-1'-spiro-2-[6-((carboxymethyl)amino)-4,9-dihydroxy-2H-benz[f]indene-1,3,5,8-tetrone]sodium salt]	0.8	0.9	1.6	1	1	1.2	
COCOc1cccc2c1C1(CC2)C(=O)c2c(O)c3c(c(O)c2C1=O)C(=O)C(Nc1ccc(SSc2ccc(N)cc2)cc1)=CC3=O (centres unmarked) [Example 36, 2',3'-Dihydro-7'-(methoxymethoxy)-1H-indene-1'-spiro-2-[4,9-dihydroxy-6-(4-(4-aminophenyldithio)phenylamino)-2H-benz[f]indene-1,3,5,8-tetrone]]	458 (≈ 687 µM)	> 500					
CCNC1=CC(=O)c2c(O)c3c(c(O)c2C1=O)C(=O)C1(CCc2cccc(OCOC)c21)C3=O (centres unmarked) [Example 11, 2',3'-Dihydro-6-ethylamino-7'-(methoxymethoxy)-1H-indene-1'-spiro-2-[4,9-dihydroxy-2H-benz[f]-indene-1,3,5,8-tetrone]]	0.03 (≈ 0.0647 µM)	0.03 (≈ 0.0647 µM)	0.03 (≈ 0.0647 µM)	0.03 (≈ 0.0647 µM)	0.03 (≈ 0.0647 µM)	< 0.03	
NCCSSCCNC1=CC(=O)c2c(O)c3c(c(O)c2C1=O)C(=O)C1(CCc2cccc(O)c21)C3=O (centres unmarked) [Example 35, 2',3'-Dihydro-7'-hydroxy-1H-indene-1'-spiro-2-[4,9-dihydroxy-6-(2(2-aminoethyldithio)ethylamino)-2H-benz[f]indene-1,3,5,8-tetrone] hydrochloride]	24			22			
COCOc1cccc2c1C1(CC2)C(=O)c2c(O)c3c(c(O)c2C1=O)C(=O)C(NC1C(=O)N2C1SC(C)(C)C2C(=O)O)=CC3=O (centres unmarked) [Example 27, 6-((2',3'-dihydro-7'-(methoxymethoxy)-1H-indene-1'-spiro-[4,9-dihydroxy-2H-benz[f]indene-1,3,5,8-tetrone]-6-yl)amino)penicillanic acid]	0.24 (≈ 0.378 µM)			0.22 (≈ 0.347 µM)			
N=C(N)NCCC[C@H](NC1=CC(=O)c2c(O)c3c(c(O)c2C1=O)C(=O)C1(CCc2cccc(O)c21)C3=O)C(=O)O (some centres unmarked) [Example 28]	> 500	71 (≈ 129 µM)					
CCCCCc1cc2cc3c(c(OCOC)c2c(OC)n1)C1(CC3)C(=O)c2c(O)c3c(c(O)c2C1=O)C(=O)C(NCC)=CC3=O (centres unmarked) [Example 22, 6',7'-Dihydro-4,9-dihydroxy-6-ethylamino-1'-methoxy-9'-(methoxymethoxy)-3'-(n-pentyl)-spiro[2H-benz[f]-indene-2,8'[8H]cyclopent[g]isoquinoline]-1,3,5,8-tetrone]							AWC (average weight change per mouse) (p388 murine leukemia; 3.3 mg/kg): 1.5; AWC (average weight change per mouse) (p388 murine leukemia; 10 mg/kg): 1.0; AWC (average weight change per mouse) (p388 murine leukemia; 30 mg/kg): -0.2; response vs control in vivo at 3.3 mg/kg (p388 murine leukemia; Mus musculus, P388, 720 h, 3.3 mg/kg, read-out: % T/C (mean survival time treated/control)): 95%; response vs control in vivo at 10 mg/kg (p388 murine leukemia; Mus musculus, P388, 720 h, 10 mg/kg, read-out: % T/C (mean survival time treated/control)): 105%; response vs control in vivo at 30 mg/kg (p388 murine leukemia; Mus musculus, P388, 720 h, 30 mg/kg, read-out: % T/C (mean survival time treated/control)): 135%
CCSC1=C(SCC)C(=O)c2c(O)c3c(c(O)c2C1=O)C(=O)C1(CCc2cccc(OCOC)c21)C3=O [Example 30]	1.8 (≈ 3.33 µM)	1.2 (≈ 2.22 µM)	> 16	2.2 (≈ 4.07 µM)	3 (≈ 5.55 µM)	7 (≈ 12.9 µM)	
COCOc1cccc2c1C1(CC2)C(=O)c2c(O)c3c(c(O)c2C1=O)C(=O)C(OC)=CC3=O (centres unmarked) [Example 5, 2',3'-Dihydro-7'-(methoxymethoxy)-6-methoxy-1H-indene-1'-spiro-2-[4,9-dihydroxy-2H-benz[f]indene-1,3,5,8-tetrone]]	0.7 (≈ 1.55 µM)	0.09 (≈ 0.2 µM)	1.1 (≈ 2.44 µM)	0.2 (≈ 0.444 µM)	0.2 (≈ 0.444 µM)	0.4 (≈ 0.888 µM)	
COCOc1cccc2c1C1(CC2)C(=O)c2c(O)c3c(c(O)c2C1=O)C(=O)C(Nc1ccc(C(=O)O)cc1)=CC3=O (centres unmarked) [Example 19, 2',3'-Dihydro-7'-(methoxymethoxy)-1H-indene-1'-spiro-2-[6-(4-carboxyanilino)-4,9-dihydroxy-2H-benz[f]indene-1,3,5,8-tetrone]]	27 (≈ 48.6 µM)	322 (≈ 580 µM)					
